Marks after values point to notes of the source that are not given here.
Columns and labels:
[1] = system: HCE-T (immortalized human corneal epithelial) cells; assay: HCE-T cell migration assay, Calcein-AM fluorescence of cells migrated into the stopper zone; format: cell-based; conditions: for Relative fluorescence intensity (%): no-addition control = 100%; for Effect on migration of human corneal epithelial cells (in words): summary statement from both analysis methods
Description: (§1) HCE-T (immortalized human corneal epithelial) cells [isolated and established from human corneal epithelia; obtained from RIKEN Cell Bank] were cultured in DMEM/F12 medium supplemented with 5% fetal bovine serum in a CO2 incubator at 37° C.
(§2) HCE-T cells grown to 60%-80% confluency in a T75 flask were detached with trypsin-EDTA and collected. The collected cells were suspended in fresh DMEM/F12 medium supplemented with fetal bovine serum.
(§3) From this cell suspension, 60,000 cells per well were seeded in a 96-well multiwell-plate, in which each well was fitted with a cell seeding stopper.
(§4) After the plate was incubated overnight at 37° C. in a CO 2 incubator, the cell stoppers were removed, and the cells were washed twice with a serum-free medium. Then, the medium was replaced by a serum-free medium supplemented with the test substance or a control serum-free medium devoid of the test substance, and the cells were cultured for 28 hours.
(§5) The serum-free medium with the test substance used was a medium containing fondaparinux sodium [obtained from Selleck] at a concentration of 0.1% (w/v) or 0.3% (w/v) or a medium containing 0.5% (w/v) sodium chondroitin sulfate (obtained from Tokyo Chemical Industry; average molecular weight, ~30,000).
(§6) The cultured cells were stained with Calcein-AM (obtained from nacalai tesque), and the fluorescence emitted from HCE-T cells that migrated to the zone where the stopper was placed was measured. After the fluorescence intensity was measured, fluorescence microscopic images were acquired and analyzed using a BZ-X analyzer to measure cell migration areas.
A relative fluorescence intensity value is a fluorescence intensity measurement for each test substance group expressed in percentage in reference to the fluorescence intensity of the no-addition group (control) as 100%, indicating the relative level of cell migration compared to the control.
(§7) As in Experiment 1, HCE-T (immortalized human corneal epithelial) cells were used to investigate the effects of test substances on the migration of HCE-T cells. The test substances used were fondaparinux sodium, high-molecular-weight sodium hyaluronate (average molecular weight 887,000), sodium heparan sulfate (average molecular weight 23,000), and low molecular weight heparin (average molecular weight 5,400). Among these test substances, fondaparinux sodium was obtained from Selleck as described above, and all other glycosaminoglycans were obtained from Iwai Chemicals Company. The concentration of each test substance was 0.3% (w/v).

[2] = system: HCE-T (immortalized human corneal epithelial) cells; assay: HCE-T cell migration assay, cell migration area from fluorescence microscopic images (BZ-X analyzer); format: cell-based; conditions: for Relative cell migration area (%): no-addition control = 100%
Description: as §1, §2, §3, §4, §5, §6
The cell migration areas were calculated (measured) through analysis of images acquired with a fluorescence microscope and were used to calculate areas relative to the no-addition control group (relative migration areas).
A relative migration area value is a relative cell migration area for each test substance group expressed in percentage in reference to the cell migration area of the no-addition control group as 100%.
as §7

[3] = Experiment 2, 0.3% (w/v), as in Experiment 1
[4] = Experiment 2, 0.3% (w/v), mean and standard error of 4 measurements
[5] = Experiment 1, 0.1% (w/v), serum-free medium, 28 hours, mean and standard error of 3 measurements
[6] = Experiment 1, 0.3% (w/v), serum-free medium, 28 hours, mean and standard error of 3 measurements
[7] = Experiment 1, 0.5% (w/v), serum-free medium, 28 hours, mean and standard error of 3 measurements

| Molecule | Fluorescence intensity [1, 3] | Relative fluorescence intensity (%) ([1]; Experiment 2, 0.3% (w/v)) | Cell migration area (10^4 μm^2) [2, 4] | Relative cell migration area (%) ([2]; Experiment 2, 0.3% (w/v), n=4) | Relative fluorescence intensity (%) ([1]; Experiment 1, 0.1% (w/v), 28 hours, n=3) | Fluorescence intensity [1, 5] | Relative fluorescence intensity (%) ([1]; Experiment 1, 0.3% (w/v), 28 hours, n=3) | Fluorescence intensity [1, 6] | Effect on migration of human corneal epithelial cells (in words) ([1]; listed as fondaparinux sodium, sodium salt) | Effect on migration of human corneal epithelial cells (in words) ([1]; listed as fondaparinux, sodium salt) | Relative cell migration area (%) ([2]; Experiment 1, 0.1% (w/v), n=3) | Cell migration area (10^4 μm^2) [2, 5] | Relative cell migration area (%) ([2]; Experiment 1, 0.3% (w/v), n=3) | Cell migration area (10^4 μm^2) [2, 6] | Relative fluorescence intensity (%) ([1]; Experiment 1, 0.5% (w/v), 28 hours, n=3) | Fluorescence intensity [1, 7] | Relative cell migration area (%) ([2]; Experiment 1, 0.5% (w/v), n=3) | Cell migration area (10^4 μm^2) [2, 7] | Effect on migration of human corneal epithelial cells (in words) [1] |
| --- | --- | --- | --- | --- | --- | --- | --- | --- | --- | --- | --- | --- | --- | --- | --- | --- | --- | --- | --- |
| High-molecular-weight sodium hyaluronate | 0.176 ± 0.028 | 143.67 ± 22.72% | 50.9 ± 17.4 10^4 μm^2 | 130.9 ± 4.5% |  |  |  |  |  |  |  |  |  |  |  |  |  |  |  |
| CO[C@H]1OC(COS(=O)(=O)[O-])[C@@H](O[C@@H]2OC(C(=O)[O-])[C@@H](O[C@H]3OC(COS(=O)(=O)[O-])[C@@H](O[C@@H]4OC(C(=O)[O-])[C@@H](O[C@H]5OC(COS(=O)(=O)[O-])[C@@H](O)C(O)C5NS(=O)(=O)[O-])C(O)C4O)C(OS(=O)(=O)[O-])C3NS(=O)(=O)[O-])C(O)C2OS(=O)(=O)[O-])C(O)C1NS(=O)(=O)[O-].[Na+].[Na+].[Na+].[Na+].[Na+].[Na+].[Na+].[Na+].[Na+].[Na+] (stereo partly drawn) [Fondaparinux sodium, methyl O-(2-deoxy-6-O-sulfo-2-sulfoamino-α-D-glucopyranosyl)-(1→4)-O-(β-D-glucopyranosyluronic acid)-(1→4)-O-(2-deoxy-3,6-di-O-sulfo-2-sulfoamino-α-D-glucopyranosyl)-(1→4)-O-(2-O-sulfo-α-L-idopyranosyluronic acid)-(1→4)-2-deoxy-6-O-sulfo-2-sulfoamino-α-D-glucopyranoside sodium salt] | 0.290 ± 0.028 | 237.36 ± 22.53 % | 65.9 ± 6.4 10^4 μm^2 | 169.4 ± 16.4% | 145.41 ± 10.19% | 0.183 ± 0.013 | 170.1 ± 2.84 % | 0.215 ± 0.004 | promoted migration and stretching of human corneal epithelial cells | strong stimulatory effect | 160.5 ± 6.6% | 102.1 ± 4.2 10^4 μm^2 | 168.4 ± 5.1 % | 107.1 ± 3.2* 10^4 μm^2 |  |  |  |  |  |
| Sodium chondroitin sulfate |  |  |  |  |  |  |  |  |  |  |  |  |  |  | 89.20 ± 23.97% | 0.112 ± 0.030 | 103.9 ± 18.0% | 66.1 ± 1.1 10^4 μm^2 |  |
| Low molecular weight heparin | 0.359 ± 0.083 | 293.94 ± 68.25% | 78.4 ± 12.3* 10^4 μm^2 | 201.6 ± 31.6 % |  |  |  |  |  |  |  |  |  |  |  |  |  |  | strong stimulatory effect |
